# Data published in patent US20090036355A1, “Antisense Modulation of PTP1B Expression” (priority 2004, published 2009).
# Where two headings read alike, the source gives them in different places.
# Experiments:
# ZDF rats [1] = assay: ZDF rats: comparison to rosiglitazone and metformin (glucose, HbA1c, meal tolerance, body weight); assay type: in vivo, rat
# Method: A saline treated group of lean rats was also included in the study. Treatment with all drugs was initiated before the rats became frankly diabetic, which occurs at about 8 weeks of age. Plasma glucose levels were measured 3 and 5 weeks after treatment initiation. Body weight was measured once every week; in addition, HbA, levels were measured at the end of the study by HPLC. A meal tolerance test was also performed after 4 weeks of treatment.
# At the end of 5 weeks, some rats were sacrificed and the liver and epididymal fat pads were removed. The rest of the animals (n=4/group) were examined for changes in plasma glucose levels after cessation of treatment. Glucose measurements during the recovery phase were made 10 days and 5 weeks after stopping treatment. Tissue extracts were subjected to Western blot analysis to measure changes in PTP1B protein levels.
# ZDF rats [2] = assay: Combination with metformin in ZDF rats: plasma glucose; assay type: in vivo, rat; details: 4 weeks, metformin 100, 300 or 500 mg/kg per day, ISIS 113715 12.5 mg/kg twice a week
# Method: 500 mg/kg is the maximally effective dose that can be tolerated by these rats. Plasma glucose was measured at week 0 (before treatment) and after weeks 1, 2 and 4 of treatment.
# [3] = Combination with metformin in ZDF rats: hypoglycemia, AST/ALT, lipids, plasma lactate; assay type: in vivo, rat; details: after 4 weeks of treatment, metformin 100, 300 or 500 mg/kg per day, ISIS 113715 12.5 mg/kg twice a week
# Method: 500 mg/kg is the maximally effective dose that can be tolerated by these rats.
# There was no significant change in AST/ALT, plasma triglyceride or plasma cholesterol levels in any animal group. Because of the risk of lactic acidosis associated with metformin treatment, plasma lactate levels were measured.
# [4] = AST/ALT and plasma cholesterol in aged ZDF rats; details: weeks 1, 2, 3, 4 and 5
# ZDF rats [5] = assay: Fed plasma glucose in Zucker diabetic fatty (ZDF) rats; assay type: in vivo, rat
# From the text: The leptin receptor deficient Zucker diabetic fatty (ZDF) rat is another useful model for the investigation of type 2 diabetes. Diabetes develops spontaneously in these male rats at ages 8-10 weeks, and is associated with hyperphagia, polyuria, polydipsia, and impaired weight gain, symptoms which parallel the clinical symptoms of diabetes (Phillips M S, et al., 1996, Nat Genet. 13, 18-19).
# (§1) ZDF/GmiCrl-fa/fa (ZDF) male rats were purchased from Charles River Laboratories (Wilmington, Mass., USA). Six week old ZDF male rats were injected intraperitoneally with oligonucleotides at a dose of 25 mg/kg two times per week for four weeks. […] Saline-injected animals also serve as controls.
# ZDF rats [6] = assay: Intraperitoneal glucose tolerance test (IPGTT) in ZDF rats; assay type: in vivo, rat
# Method: as §1
# An intraperitoneal glucose tolerance test (IPGTT) was also performed. Rats received intraperitoneal injections of glucose, and the blood glucose and insulin levels are measured before the glucose challenge and at intervals over 2 hours. The blood glucose levels (in mg/dL) are shown below in Table 1: […]
# PTP1B protein = PTP1B protein levels in ZDF rats (Western blot); assay type: in vivo, rat; details: compared to saline-treated animals
# Method: as §1
# PTP1B protein levels were measured by Western blot analysis.
# PTP1B = PTP1B protein in HEPG2 cells (Western blot); assay type: cell-based, human; details: 150 nM
# Method: (§2) There is a high degree of homology between PTP1B and T-cell phosphatase (TC-PTPase, PTPN2), particularly in the catalytic domain. This may present problems in design of small molecule drugs specific for PTP1B. […] HEPG2 human hepatocellular liver carcinoma cells (ATCC, Manassas Va.) are routinely maintained in minimum essential medium (Eagle) with 2 mM L-glutamine and Earle's BSS adjusted to contain 1.5 g/L sodium bicarbonate, 0.1 mM non-essential amino acids, and 1.0 mM sodium pyruvate, […]; fetal bovine serum.
# (§3) Levels of PTP1B and TC-PTPase protein were measured by Western blot using mouse monoclonal antibodies to PTP1B (AB-1) and TC-PTPase (AB-1) (CalBiochem/Oncogene sciences, EMD Biosciences, Inc., San Diego Calif.), which specifically identified human target proteins and were used at 0.25 ug/ml. Results were expressed as percent of control (no oligo treatment).
# [7] = system: T-cell phosphatase (TC-PTPase, PTPN2); assay: TC-PTPase protein in HEPG2 cells (Western blot); assay type: cell-based, human; details: 150 nM
# Method: as §2, §3
# [8] = rat, in vivo
molecule,measurement,setting,value
CN(C)C(=N)N=C(N)N [Metformin],Blood glucose (mg/dL) (approx.),"ZDF rats [1]; 31 day washout, saline 320",~330 mg/dL
same,Blood glucose (mg/dL) (approx.),"ZDF rats [1]; Week 3 of dosing, saline 320",~180 mg/dL
same,body weight,ZDF rats [1]; after treatment,remained unchanged
same,effect on blood glucose over time,ZDF rats [2],lost over time
same,plasma lactate levels,[3],dose-dependent increase
CN(CCOc1ccc(CC2SC(=O)NC2=O)cc1)c1ccccn1 (stereo not drawn) [Rosiglitazone],Blood glucose (mg/dL) (approx.),"ZDF rats [1]; 10 day washout, saline 310",~260 mg/dL
same,Blood glucose (mg/dL) (approx.),"ZDF rats [1]; 31 day washout, saline 320",~270 mg/dL
same,Blood glucose (mg/dL) (approx.),"ZDF rats [1]; Pre-treatment, ISIS 113715 50 mg/kg/week IP, rosiglitazone 10 mg/kg/day, metformin 800 mg/kg/day orally, saline 140",~140 mg/dL
same,Blood glucose (mg/dL) (approx.),"ZDF rats [1]; Week 3 of dosing, saline 320",~110 mg/dL
same,AST/ALT and plasma cholesterol levels,[4],no significant effects
"ISIS 141923: CCTTCCCTGAAGGTTCCTCC; SEQ ID NO: 20, six-mismatch control of ISIS 113715, negative oligonucleotide control (chemistry not given here)",fed plasma glucose levels,"ZDF rats [5]; 25 mg/kg i.p. two times per week, week 0, saline 302±44",approximately 306±59 mg/dL
same,fed plasma glucose levels,"ZDF rats [5]; week 1, saline 400±17",~391 ± 35 mg/dL
same,fed plasma glucose levels,"ZDF rats [5]; week 2, saline 441±13",~402 ± 37 mg/dL
same,fed plasma glucose levels,"ZDF rats [5]; week 3, saline 453±26",~411 ± 27 mg/dL
same,fed plasma glucose levels,"ZDF rats [5]; week 4, saline 425±10",~392 ± 11 mg/dL
same,"Blood glucose after IPGTT, Glucose mg/dL ± SEM",ZDF rats [6]; 0 min,330 ± 39 mg/dL
same,"Insulin excursion after IPGTT, Insulin (ng/ml ± SEM)",ZDF rats [6]; 0 min,2.2 ± .30 ng/mL
same,"Blood glucose after IPGTT, Glucose mg/dL ± SEM",ZDF rats [6]; 5 min,543 ± 43 mg/dL
same,"Insulin excursion after IPGTT, Insulin (ng/ml ± SEM)",ZDF rats [6]; 5 min,2.3 ± .84 ng/mL
same,"Blood glucose after IPGTT, Glucose mg/dL ± SEM",ZDF rats [6]; 15 min,703 ± 60 mg/dL
same,"Insulin excursion after IPGTT, Insulin (ng/ml ± SEM)",ZDF rats [6]; 15 min,4.0 ± .22 ng/mL
same,"Blood glucose after IPGTT, Glucose mg/dL ± SEM",ZDF rats [6]; 30 min,791 ± 52 mg/dL
same,"Insulin excursion after IPGTT, Insulin (ng/ml ± SEM)",ZDF rats [6]; 30 min,4.2 ± .37 ng/mL
same,"Blood glucose after IPGTT, Glucose mg/dL ± SEM",ZDF rats [6]; 60 min,705 ± 51 mg/dL
same,"Insulin excursion after IPGTT, Insulin (ng/ml ± SEM)",ZDF rats [6]; 60 min,2.4 ± .66 ng/mL
same,"Blood glucose after IPGTT, Glucose mg/dL ± SEM",ZDF rats [6]; 120 min,594 ± 28 mg/dL
same,"Insulin excursion after IPGTT, Insulin (ng/ml ± SEM)",ZDF rats [6]; 120 min,1.7 ± .60 ng/mL
same,Insulin AUC after IPGTT,ZDF rats [6]; saline approximately 300,~320
same,Glucose excursion (AUC) after IPGTT,"ZDF rats [6]; saline approximately 72,000","approximately 80,000"
same,PTP1B protein levels decreased by,PTP1B protein,10%
same,PTP1B protein levels reduced by,PTP1B,reduced neither
same,TC-PTPase levels reduced by,[7],reduced neither
same,AST/ALT and plasma cholesterol levels,[8],no significant effects
